# Results: patent US11078170B2 (Assembly Biosciences, Inc., priority 2017, dated 2021)
# Tested on: HBV viral production from HepAD38 cells
# Experiment: Activity of test compounds on viral production from HepAD38 cells (viral load by qPCR of HBV core sequence in supernatant)
# Assay type: cell-based
# Conditions: Hepatitis B virus, 120 h, 5 days incubation, HBV DNA in supernatant by qPCR, top concentration 10 μM, read-out: Viral Load EC50 Activity range
# Procedure, shortened: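 HepAD38 cells, 50,000/well in tetracycline-free 2% FBS medium, treated 5 days at 37° C. with compound from 10 μM top concentration. HBV DNA in supernatant quantified by TaqMan qPCR of core sequence against DNA standards, relative to DMSO wells; CellTiter-Glo viability read in parallel. EC50/CC50 from four-parameter logistic fit.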
row,SMILES,EC50 [µM]
1,"CC(C)n1cc(-c2ccc([C@@H]3C[C@H](C(=O)Nc4ccc(F)c(Cl)c4)N(C)S(=O)(=O)N3)s2)cn1 [HBV-CSU-292-ISO-II, Cis-N-(3-chloro-4-fluorophenyl)-5-(5-(1-isopropyl-1H-pyrazol-4-yl)thiophen-2-yl)-2-methyl-1,2,6-thiadiazinane-3-carboxamide 1,1-dioxide]",1 to 5
2,"CN1[C@@H](C(=O)Nc2ccc(F)c(Cl)c2)C[C@@H](c2ccc(F)c(F)c2)NS1(=O)=O [HBV-CSU-230-ISO-II, Cis-N-(3-Chloro-4-fluorophenyl)-5-(3,4-difluorophenyl)-2-methyl-1,2,6-thiadiazinane-3-carboxamide 1,1-dioxide]",> 5
3,"CC(C)OCCN1C(C(=O)Nc2ccc(F)c(Cl)c2)CC(c2nccs2)NS1(=O)=O (stereo not drawn) [HBV-CSU-143, Cis-N-(3-Chloro-4-fluorophenyl)-2-(2-isopropoxyethyl)-5-(thiazol-2-yl)-1,2,6-thiadiazinane-3-carboxamide 1,1-dioxide]",< 1
4,"CN1C(C(=O)Nc2ccc(F)c(Cl)c2)CC(c2ncc(-c3cncs3)s2)NS1(=O)=O (racemic) [HBV-CSU-278, Cis-5-([5,5′-Bithiazol]-2-yl)-N-(3-chloro-4-fluorophenyl)-2-methyl-1,2,6-thiadiazinane-3-carboxamide 1,1-dioxide]",< 1
5,CN1[C@H](C(=O)Nc2ccc(F)c(Cl)c2)C[C@H](c2ccc(-c3ccc(F)cc3)s2)NS1(=O)=O [HBV-CSU-238-ISO-I],< 1
6,"COCCN1[C@H](C(=O)Nc2ccc(F)c(Cl)c2)C[C@H](c2ccc(F)cc2)NS1(=O)=O [HBV-CSU-210-ISO-II, Cis-N-(3-Chloro-4-fluorophenyl)-5-(4-fluorophenyl)-2-(2-methoxyethyl)-1,2,6-thiadiazinane-3-carboxamide 1,1-dioxide]",< 1
7,"CN1[C@H](C(=O)Nc2ccc(F)c(Cl)c2)C[C@H](c2ccc(-c3cn(C)cn3)s2)NS1(=O)=O [HBV-CSU-266-ISO-I, (3S,5R)-N-(3-chloro-4-fluorophenyl)-2-methyl-5-(5-(1-methyl-1H-imidazol-4-yl)thiophen-2-yl)-1,2,6-thiadiazinane-3-carboxamide 1,1-dioxide]",< 1
8,"CCn1cc(-c2csc([C@H]3C[C@@H](C(=O)Nc4ccc(F)c(Cl)c4)N(C)S(=O)(=O)N3)c2)cn1 [HBV-CSU-294-ISO-I, Cis-N-(3-chloro-4-fluorophenyl)-5-(4-(1-ethyl-1H-pyrazol-4-yl)thiophen-2-yl)-2-methyl-1,2,6-thiadiazinane-3-carboxamide 1,1-dioxide]",< 1
9,O=C(Nc1ccc(F)c(Cl)c1)[C@H]1C[C@@H](c2nccs2)NS(=O)(=O)N1CCCN1CCOCC1 [HBV-CSU-103-ISO-I],> 5
10,"COCCN1[C@H](C(=O)Nc2ccc(F)c(Cl)c2)C[C@H](c2nccs2)NS1(=O)=O [HBV-CSU-058-ISO-II, Cis-N-(3-chloro-4-fluorophenyl)-2-(2-methoxyethyl)-5-(thiazol-2-yl)-1,2,6-thiadiazinane-3-carboxamide 1,1-dioxide]",< 1
11,"CN1C(C(=O)Nc2ccc(F)c(Cl)c2)CC(c2ccc(F)c(F)c2)NS1(=O)=O (racemic) [HBV-CSU-230, Cis-N-(3-Chloro-4-fluorophenyl)-5-(3,4-difluorophenyl)-2-methyl-1,2,6-thiadiazinane-3-carboxamide 1,1-dioxide]",< 1
12,"CN1[C@H](C(=O)Nc2ccc(F)c(Cl)c2)C[C@H](c2ccc(OCC(=O)O)cc2)NS1(=O)=O (relative stereo) [HBV-CSU-216-ISO-I, Cis-2-(4-(5-((3-Chloro-4-fluorophenyl)carbamoyl)-6-methyl-1,1-dioxido-1,2,6-thiadiazinan-3-yl)phenoxy)acetic acid]",1 to 5
13,"CN1C(C(=O)Nc2ccc(C#N)cc2)CC(c2cccs2)NS1(=O)=O (stereo not drawn) [HBV-CSU-019, Cis-N-(4-cyanophenyl)-2-methyl-5-(thiophen-2-yl)-1,2,6-thiadiazinane-3-carboxamide 1,1-dioxide]",> 5
14,"CN1[C@@H](C(=O)Nc2ccc(F)c(Cl)c2)C[C@@H](c2ccc(-c3cncs3)s2)NS1(=O)=O [HBV-CSU-268-ISO-II, Cis-N-(3-Chloro-4-fluorophenyl)-2-methyl-5-(5-(thiazol-5-yl)thiophen-2-yl)-1,2,6-thiadiazinane-3-carboxamide 1,1-dioxide]",> 5
15,"O=C(Nc1ccc(F)c(Cl)c1)C1CC(c2nccs2)NS(=O)(=O)N1CCOCc1ccccc1 (racemic) [HBV-CSU-095, Cis-2-(2-(benzyloxy)ethyl)-N-(3-chloro-4-fluorophenyl)-5-(thiazol-2-yl)-1,2,6-thiadiazinane-3-carboxamide 1,1-dioxide]",1 to 5
16,"CN1[C@@H](C(=O)Nc2ccc(F)c(Cl)c2)C[C@@H](c2ccc(-c3ccc(C#N)c(F)c3)s2)NS1(=O)=O [HBV-CSU-156-ISO-II, Cis-N-(3-chloro-4-fluorophenyl)-5-(5-(4-cyano-3-fluorophenyl)thiophen-2-yl)-2-methyl-1,2,6-thiadiazinane-3-carboxamide 1,1-dioxide]",> 5
17,"[2H]C1[C@]([2H])(c2ccc(-c3cn(C([2H])([2H])[2H])cn3)s2)NS(=O)(=O)N(C)[C@]1([2H])C(=O)Nc1ccc(F)c(Cl)c1 (stereo in doubt) [HBV-CSU-376-ISO-I, Cis-N-(3-Chloro-4-fluorophenyl)-2-methyl-5-(5-(1-(methyl-d3)-1H-imidazol-4-yl)thiophen-2-yl)-1,2,6-thiadiazinane-3,4,5-d3-3-carboxamide 1,1-dioxide]",< 1
18,"CN1[C@@H](C(=O)Nc2ccc(F)c(Cl)c2)C[C@@H](c2ncc(-c3ccccn3)s2)NS1(=O)=O [HBV-CSU-176-ISO-II, Cis-N-(3-chloro-4-fluorophenyl)-2-methyl-5-(5-(pyridin-2-yl)thiazol-2-yl)-1,2,6-thiadiazinane-3-carboxamide 1,1-dioxide]",> 5
19,"COCCCN1[C@@H](C(=O)Nc2ccc(F)c(Cl)c2)C[C@@H](c2nccs2)NS1(=O)=O [HBV-CSU-077-ISO-I, Cis-N-(3-Chloro-4-fluorophenyl)-2-(3-methoxypropyl)-5-(thiazol-2-yl)-1,2,6-thiadiazinane-3-carboxamide 1,1-dioxide]",> 5
20,"CN1C(C(=O)Nc2ccc(F)c(Cl)c2)CC(c2ccc(C(F)(F)F)s2)NS1(=O)=O (racemic) [HBV-CSU-219, Cis-N-(3-Chloro-4-fluorophenyl)-2-methyl-5-(5-(trifluoromethyl)thiophen-2-yl)-1,2,6-thiadiazinane-3-carboxamide 1,1-dioxide]",< 1
21,"CN1C(C(=O)Nc2ccc(F)c(Cl)c2)CC(c2cc(-c3cnn(C(F)(F)F)c3)cs2)NS1(=O)=O (racemic) [HBV-CSU-325, Cis-N-(3-Chloro-4-fluorophenyl)-2-methyl-5-(4-(1-(trifluoromethyl)-1H-pyrazol-4-yl)thiophen-2-yl)-1,2,6-thiadiazinane-3-carboxamide 1,1-dioxide]",< 1
22,"CN1C(C(=O)Nc2ccc(F)c(Cl)c2)CC(c2ncc(-c3cn[nH]c3)s2)NS1(=O)=O (racemic) [HBV-CSU-254, Cis-5-(5-(1H-pyrazol-4-yl)thiazol-2-yl)-N-(3-chloro-4-fluorophenyl)-2-methyl-1,2,6-thiadiazinane-3-carboxamide 1,1-dioxide]",< 1
23,"CN1[C@H](C(=O)Nc2ccc(F)c(Cl)c2)C[C@H](c2cc(-c3nncn3C)cs2)NS1(=O)=O [HBV-CSU-328-ISO-I, Cis-N-(3-chloro-4-fluorophenyl)-2-methyl-5-(4-(4-methyl-4H-1,2,4-triazol-3-yl)thiophen-2-yl)-1,2,6-thiadiazinane-3-carboxamide 1,1-dioxide]",< 1
24,"Cc1ccc([C@@H]2C[C@H](C(=O)Nc3ccc(F)c(Cl)c3)N(C)S(=O)(=O)N2)s1 [HBV-CSU-115-ISO-II, Cis-N-(3-chloro-4-fluorophenyl)-2-methyl-5-(5-methylthiophen-2-yl)-1,2,6-thiadiazinane-3-carboxamide 1,1-dioxide]",> 5
25,"CN1C(C(=O)Nc2ccc(F)c(Cl)c2)CC(c2cc(-c3cncnc3)cs2)NS1(=O)=O (racemic) [HBV-CSU-290, Cis-N-(3-chloro-4-fluorophenyl)-2-methyl-5-(4-(pyrimidin-5-yl)thiophen-2-yl)-1,2,6-thiadiazinane-3-carboxamide 1,1-dioxide]",< 1
26,"CN1C(C(=O)Nc2ccc(F)c(F)c2)CC(c2cccs2)NS1(=O)=O (stereo not drawn) [HBV-CSU-011, Cis-N-(3,4-difluorophenyl)-2-methyl-5-(thiophen-2-yl)-1,2,6-thiadiazinane-3-carboxamide 1,1-dioxide]",< 1
27,"CN1[C@H](C(=O)Nc2ccc(F)c(Cl)c2)C[C@H](c2ccc(-c3cccs3)s2)NS1(=O)=O [HBV-CSU-162-ISO-I, Cis-N-5-([2,2′-bithiophen]-5-yl)-N-(3-chloro-4-fluorophenyl)-2-methyl-1,2,6-thiadiazinane-3-carboxamide 1,1-dioxide]",< 1
